This assay has as its target T1, Gonadotropin-releasing hormone receptor (Rattus norvegicus, UniProt P30969).
T1 sequence (P30969 whole entry): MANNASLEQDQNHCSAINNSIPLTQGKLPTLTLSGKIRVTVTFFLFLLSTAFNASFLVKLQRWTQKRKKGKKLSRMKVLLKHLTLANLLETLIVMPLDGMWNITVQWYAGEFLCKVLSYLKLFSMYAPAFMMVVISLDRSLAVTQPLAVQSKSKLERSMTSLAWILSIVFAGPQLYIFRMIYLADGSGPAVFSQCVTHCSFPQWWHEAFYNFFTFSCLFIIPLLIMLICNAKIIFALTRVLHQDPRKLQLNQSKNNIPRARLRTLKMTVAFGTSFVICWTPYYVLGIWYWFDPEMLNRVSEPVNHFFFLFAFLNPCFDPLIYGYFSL
As to the kind of experiment: Inhibition of rat GnRH receptor binding.
`Cc1cc(C)cc(-c2[nH]c3ccccc3c2CCNCCCCc2ccc(N)cc2)c1` displayed an IC50 of 0.3 µM.

Consider `CCS(=O)(=O)Nc1ccc(CCCCNCCc2c(-c3cc(C)cc(C)c3)[nH]c3ccccc23)cc1`, for which the IC50 turned out to be 0.2 µM.

Turning to `CCNS(=O)(=O)Nc1ccc(CCCCNCCc2c(-c3cc(C)cc(C)c3)[nH]c3ccccc23)cc1`, the IC50 was determined as 0.04 µM.

The molecule `Cc1cc(C)cc(-c2[nH]c3ccccc3c2CCNCCCCc2ccc(F)cc2)c1` registered an IC50 of 0.3 µM.

Take `Cc1cc(C)cc(-c2[nH]c3ccccc3c2CCNCCCCc2ccc(NS(=O)(=O)c3ccccc3)cc2)c1`: the IC50 turned out to be 0.3 µM.

`Cc1cc(C)cc(-c2[nH]c3ccccc3c2CCNCCCCc2ccc(NS(=O)(=O)C(C)C)cc2)c1` registered an IC50 of 0.22 µM.

Molecule `CCNC(=O)Nc1ccc(CCCCNCCc2c(-c3cc(C)cc(C)c3)[nH]c3ccccc23)cc1` yielded an IC50 of 0.028 µM.

In the case of `CNC(=O)Nc1ccc(CCCCNCCc2c(-c3cc(C)cc(C)c3)[nH]c3ccccc23)cc1`, the IC50 came to 0.048 µM.

In turn, `CC(=O)Nc1ccc(CCCCNCCc2c(-c3cc(C)cc(C)c3)[nH]c3ccccc23)cc1` registered an IC50 of 0.2 µM.

The molecule `CNS(=O)(=O)Nc1ccc(CCCCNCCc2c(-c3cc(C)cc(C)c3)[nH]c3ccccc23)cc1` displayed an IC50 of 0.047 µM.

Regarding `Cc1cc(C)cc(-c2[nH]c3ccccc3c2CCNCCCCc2ccc([N+](=O)[O-])cc2)c1`, the IC50 turned out to be 0.5 µM.

The molecule `Cc1cc(C)cc(-c2[nH]c3ccccc3c2CCNCCCCc2ccc(S(N)(=O)=O)cc2)c1` gave an IC50 of 0.036 µM.

Values taken from ChEMBL document CHEMBL1134831, “2-(3,5-Dimethylphenyl)tryptamine derivatives that bind to the GnRH receptor” (Bioorg Med Chem Lett, 2001).
